In patent publication US10555987B2, “GHRH agonists for the treatment of ischemic disorders” (UNIVERSITY OF MIAMI, priority 2012, dated 2020):
“And” between values parts separate entries of the source, which are not always exact repeats. Identical values can stand only once. Non-standard residues stand in square brackets, D forms with d. Residues, ends and D or L forms follow the SMILES beside them. NMeY = CN[C@@H](Cc1ccc(O)cc1)C(=O)O; Nle = CCCC[C@H](N)C(=O)O; Orn = NCCC[C@H](N)C(=O)O; Abu = CC[C@H](N)C(=O)O; Aoc = NCCCCCCCC(=O)O; Ava = NCCCCC(=O)O

Legend:
[1] = target: T1, GHRH receptor (Homo sapiens, UniProt Q02643); assay: GHRH receptor binding, competition with 125I-labeled JV-1-42, human pituitary membrane homogenates (Table 7); design: Normal human pituitaries were purchased from the National Hormone and Peptide Program; tissue National Hormone and Peptide Program (A.F. Parlow, Harbor-UCLA Medical Center, Torrance, Calif.); host or cells: normal human pituitary, membrane fraction; settings: JI-38 = 1, Table 7
T1 sequence (Q02643 23-423): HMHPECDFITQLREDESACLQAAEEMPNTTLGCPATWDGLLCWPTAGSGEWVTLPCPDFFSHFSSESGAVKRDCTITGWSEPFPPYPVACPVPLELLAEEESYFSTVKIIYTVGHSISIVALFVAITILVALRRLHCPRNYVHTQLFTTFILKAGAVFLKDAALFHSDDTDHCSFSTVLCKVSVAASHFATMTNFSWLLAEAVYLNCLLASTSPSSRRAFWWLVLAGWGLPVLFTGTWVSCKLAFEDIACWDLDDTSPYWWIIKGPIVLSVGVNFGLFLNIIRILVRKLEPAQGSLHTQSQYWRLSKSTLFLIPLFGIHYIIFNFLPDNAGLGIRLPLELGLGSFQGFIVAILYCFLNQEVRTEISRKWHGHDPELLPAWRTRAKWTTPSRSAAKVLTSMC
Text: Normal human pituitaries were purchased from the National Hormone and Peptide Program (A.F. Parlow, Los Angeles, County Harbor-UCLA Medical Center, Torrance, Calif.).

[2] = test system: GH release; assay: GH releasing potency in vivo, subcutaneous administration (Example 14, Table 12); design: species or system rat; settings: s.c.
In short: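 Potency is expressed relative to GHRH(1-29)NH2 and JI-38 (each = 1), via equivalent GHRH(1-29)NH2 dose read from a standard curve. Peptides in 5% mannitol given i.v. or s.c. to anaesthetised male Sprague-Dawley rats (200-250 g); serum GH measured by ELISA at selected times.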

[3] = target: T1, GHRH receptor; assay: Receptor binding in vitro, 125I-labeled [His1,Nle27]-hGHRH(1-32)NH2, membrane receptors of human anterior pituitary cells (Table 14)
Text: Normal human pituitary was purchased from the National Hormone and Peptide Program (UCLA Medical Center, Torrance, Calif.).

[4] = test system: GH release; assay: In vivo endocrine activity, GH release after subcutaneous administration (Table 9); settings: rat; for GH releasing potency relative to JI-38 (=1): subcutaneous (s.c.) injection
Method: Subcutaneous Administration. Adult male rats were used and anesthetized with pentobarbital (6 mg/100 g, b.w.), by i.p. injection. […] Blood samples were taken from the jugular vein 5, 15 and/or 30 minutes after the injection. The blood samples were centrifuged, plasma was removed and the GH level was measured byELISA. The results are summarized in terms of potency in Table 9.

[5] = test system: GH release; assay: In vivo endocrine activity, GH release after intravenous administration (Table 8); settings: rat, i.v. injection
Method: In vivo tests on endocrine activity of new GHRH agonists (Intravenous administration). For in vivo tests based on intravenous administration, adult male Sprague-Dawley rats were anesthetized with pentobarbital (6 mg/100/g, b.w.), and GHRH agonists were injected 20 minutes after the injection of pentobarbital. Blood samples were taken from the jugular vein (pretreated level), immediately after hGHRH(1-29)NH2 injection (as a control) or after hGHRH analogs injection. Blood samples were taken from the jugular vein 5, 15 and 30 minutes after the injection. The blood samples were centrifuged, plasma was removed and the GH level was measured by ELISA.

[6] = test system: myocardial infarction (Fisher-344 rats); assay: Hemodynamic analysis (pressure-volume loops), body and heart weight after MI, compared to JI-38 (Example 15, Table 16); type: in vivo, rat; design: key to ESP (End-Systolic Pressure) / EDP (End-Diastolic Pressure) / ESV (End-Systolic Volume) / PRSW (Preload Recruitable Stroke Work) / Ees (End-systolic Elastance) / dP/dt max (peak rate of the pressure rise) / dP/dt max_EDV / dP/dt min / TAU (relaxation time constant calculated by Weiss method) / SV (Stroke Volume) / CO (Cardiac Output) / SW (Stroke Work) / EF / Ea/Ees / Ea (arterial Elastance): ↓: downward arrow denotes lower than JI-38; ↑: upward arrow denotes greater than JI-38; =denotes same as JI-38; ⬇⬇: double arrow denotes greater effect; ⬆⬆: double arrow denotes greater effect; settings: rat MI model, s.c. twice daily; pressure-volume loops; expressed in comparison to JI-38
Method: Rats were anesthetized by intramuscular injection of a mixture of ketamine (100 mg/kg), xylazine (20 mg/kg) and acepromazine (10 mg/kg). A 2-F micromanometer tipped catheter (SPR-838, Millar Instruments, Houston, Tex.) was inserted into the right carotid artery and advanced retrograde into the left ventricle. Measurements were calibrated by injecting a hypertonic saline (15%) bolus to determine extra-ventricular conductance; relative volume units were converted to actual volume using the cuvette calibration method. All analyses were performed using PVAN 3.0 software (Millar Instruments, Houston, Tex.).
(§1) Myocardial infarction (MI) was induced by permanent ligation of the left coronary artery in female 6-month-old Fisher-344 rats. Following experimental myocardial infarction (MI), rats were randomly assigned to receive either placebo, JI-38, or one of the following new analogs of GHRH: MR-30 l(P-21301), MR-303(P-21303), MR-356(P-20356), MR-502(25502), MR-350(P-20350), MR-36 l(P-20361), MR-367(P-20367), MR-403(P-27403), MR-404(P-27404), and MR-409(P-27409) (10 rats per each group). The GHRH peptide agonists were adminsistered starting 2 hours post-surgery, 1 week, 2 week, and 4 week intervals. All treatment was given subcutaneously twice daily. Cardiac performance was assessed by serial echocardiography and hemodynamic analysis derived from pressure-volume loops as described before.
The hemodynamic studies are shown in FIGS. 16-33 and the results are summarized in Table 16 (results were expressed in comparison to JI-38; downward arrow denotes lower than JI-38; upward arrow denotes greater than JI-38; =denotes same as JI-38; and double arrow denotes greater effect).

[7] = test system: myocardial infarction (Fisher-344 rats); assay: Serial echocardiography after MI, compared to JI-38 (Example 15, Table 15); type: in vivo, rat; design: key to LVEDD: Left Ventricular End Diastolic Diameter / LVESD: Left Ventricular End Systolic Diameter / VD: Ventricular Diastole / VS: Ventricular Systole / EF: Ejection Fraction / FS: Fraction Shortening: ↓: downward arrow denotes lower than JI-38; ↑: upward arrow denotes greater than JI-38; =denotes same as JI-38; ⬇⬇: double arrow denotes greater effect; ⬆⬆: double arrow denotes greater effect; settings: in comparison to JI-38
Method: Echocardiographic measurements were obtained at baseline, 2 days, 1, 2 and 4 weeks. Echocardiographic assessments were performed in anesthetized rats (2% isoflurane inhalation) using a Vevo-770 echocardiogram (Visual Sonics Inc., Toronto, Ontario, Canada) equipped with a 17.5-MHz transducer. Cardiac dimensions: LV end diastolic (LVEDD), end systolic (LVESD) diameters and fractional shortening (FS) were recorded from M-mode images using averaged measurements from 3 to 5 consecutive cardiac cycles according to the American Society of Echocardiography. Ejection fraction (EF) was calculated from bi-dimensional long-axis parasternal views taken through the infarcted area. All images were analyzed using Vevo 770 3.0.0 software (Visual Sonics Inc., Toronto, Ontario, Canada).
as §1
The echocardiographic experiments are shown in FIGS. 10-15 and the results are summarized in Table 15 (results were expressed in comparison to JI-38; downward arrow denotes lower than JI-38; upward arrow denotes greater than JI-38; =denotes same as JI-38; and double arrow denotes greater effect).

With CCCC[C@H](NC(=O)[C@@H](NC(=O)[C@H](CC(=O)O)NC(=O)[C@H](CCC(N)=O)NC(=O)[C@H](CC(C)C)NC(=O)[C@H](CC(C)C)NC(=O)[C@H](CCCN)NC(=O)[C@H](CCCNC(=N)N)NC(=O)[C@H](C)NC(=O)[C@H](CO)NC(=O)[C@H](CC(C)C)NC(=O)[C@H](CCC(N)=O)NC(=O)[C@H](CC)NC(=O)[C@H](CC(C)C)NC(=O)[C@@H](NC(=O)[C@H](CCCN)NC(=O)[C@H](CCCNC(=N)N)NC(=O)[C@H](Cc1ccc(O)cc1)NC(=O)[C@H](CO)NC(=O)[C@H](CCC(N)=O)NC(=O)[C@@H](NC(=O)[C@H](Cc1ccccc1)NC(=O)[C@@H](NC(=O)[C@H](C)NC(=O)[C@H](CC(=O)O)NC(=O)[C@@H](C)NC(=O)[C@H](Cc1ccc(O)cc1)NC)[C@@H](C)CC)[C@@H](C)O)C(C)C)[C@@H](C)CC)C(=O)N[C@@H](CC(=O)O)C(=O)N[C@@H](CCCNC(=N)N)C(=O)NCCCCC(N)=O [Peptide P-22326, [N—Me-Tyr^1, D-Ala^2, Gln^8, Orn^12, Abu^15, Orn^21, Nle^27, Asp^28, Apa^30] hGHRH(1-30)NH2] (H-[NMeY][dA]DAIFTQSYR[Orn]VL[Abu]QLSAR[Orn]LLQDI[Nle]DR[Ava]-NH2) the “Relative affinity (Binding potency) vs JI-38” value [1] was 6.12, the “Serum GH level at selected time after injection (ng/ml), 0 min” value ([2]; male rats, dose 3 μg/kg, 0 min, mean ± SEM) was 43.7 ± 6.4 ng/mL and the “Serum GH level at selected time after injection (ng/ml), 15 min” value ([2]; male rats, dose 3 μg/kg, 15 min, mean ± SEM) was 309.2 ± 33.5 ng/mL. The “Serum GH level at selected time after injection (ng/ml), 30 min” value ([2]; male rats, dose 3 μg/kg, 30 min, mean ± SEM) was 225.9 ± 19.8 ng/mL, the “GH-releasing potency after s.c. administration (in words)” value [2] was “significantly higher potencies at 30 minutes than at 15 minutes” and the “Relative potency compared to GHRH(1-29), 15 min” value ([2]; 15 min) was 92.7. For the same molecule, the “Relative potency compared to JI-38, 15 min” value ([2]; 15 min, listed as MR-326) was 1.5 and 1.47, the “Relative potency compared to GHRH(1-29), 30 min” value ([2]; 30 min) was 303.4 and the “Relative potency compared to JI-38, 30 min” value ([2]; 30 min, listed as MR-326) was 2.7 and 2.71. The “Relative affinity (Binding potency) compared to JI-38” value ([3]; JI-38 = 1) was 2.80, the “Relative affinity (Binding potency) compared to hGHRH(1-29)” value ([3]; hGHRH(1-29)NH2 = 1) was 7.81 and the “Stimulation of growth hormone levels after subcutaneous administration (in words)” value ([4]; s.c.) was “stimulated greater growth hormone levels than hGHRH or JI-38”. The “GH releasing potency relative to JI-38 (=1)” value ([4]; 15 min after) was 1.76, the “GH releasing potency relative to JI-38 (=1)” value ([4]; 30 min after) was 2.31 and the “GH releasing potency in vivo relative to JI-38 (=1)” value ([5]; 15 min after) was 0.28. The “GH releasing potency in vivo relative to JI-38 (=1)” value ([5]; 30 min after) was 0.94.
With CCCC[C@H](NC(=O)[C@@H](NC(=O)[C@H](CC(=O)O)NC(=O)[C@H](CCC(N)=O)NC(=O)[C@H](CC(C)C)NC(=O)[C@H](CC(C)C)NC(=O)[C@H](CCCN)NC(=O)[C@H](CCCNC(=N)N)NC(=O)[C@H](C)NC(=O)[C@H](CO)NC(=O)[C@H](CC(C)C)NC(=O)[C@H](CCC(N)=O)NC(=O)[C@H](CC)NC(=O)[C@H](CC(C)C)NC(=O)[C@@H](NC(=O)[C@H](CCCN)NC(=O)[C@H](CCCNC(=N)N)NC(=O)[C@H](Cc1ccc(O)cc1)NC(=O)[C@H](CO)NC(=O)[C@H](CC(N)=O)NC(=O)[C@@H](NC(=O)[C@H](Cc1ccccc1)NC(=O)[C@@H](NC(=O)[C@H](C)NC(=O)[C@H](CC(=O)O)NC(=O)[C@H](C)NC(=O)[C@H](Cc1ccc(O)cc1)NC)[C@@H](C)CC)[C@@H](C)O)C(C)C)[C@@H](C)CC)C(=O)N[C@@H](CC(=O)O)C(=O)N[C@@H](CCCNC(=N)N)C(=O)NCCCCCCCC(N)=O [Peptide P-21301, [N—Me-Tyr^1, Orn^12, Abu^15, Orn^21, Nle^27, Asp^28, Amc^30]hGHRH(1-30)NH2] (H-[NMeY]ADAIFTNSYR[Orn]VL[Abu]QLSAR[Orn]LLQDI[Nle]DR[Aoc]-NH2) the “Relative affinity (Binding potency) vs JI-38” value [1] was 1.45, the “GH releasing potency relative to JI-38 (=1)” value ([4]; 15 min after) was 0.41 and the “GH releasing potency relative to JI-38 (=1)” value ([4]; 30 min after) was 0.74. The “CO (Cardiac Output)” value [6] was “=”, the “EDP (End-Diastolic Pressure)” value [6] was “↑” and the EF [6] was “↓”. For the same molecule, the “ESP (End-Systolic Pressure)” value [6] was “↓”, the “ESV (End-Systolic Volume)” value [6] was “↑” and the “Ea (arterial Elastance)” value [6] was “=”. For the same molecule, the Ea/Ees [6] was “↑”, the “Ees (End-systolic Elastance)” value [6] was “=” and the “PRSW (Preload Recruitable Stroke Work)” value [6] was “=”. For the same molecule, the “SV (Stroke Volume)” value [6] was “=”, the “SW (Stroke Work)” value [6] was “↓” and the “TAU (relaxation time constant calculated by Weiss method)” value [6] was “=”. The “dP/dt max (peak rate of the pressure rise)” value [6] was “↓”, the “dP/dt max_EDV” value [6] was “↓” and the dP/dt min [6] was “=”. The “EF: Ejection Fraction” value [7] was “↓”, the “FS: Fraction Shortening” value [7] was “=” and the “LVEDD: Left Ventricular End Diastolic Diameter” value [7] was “↑”. For the same molecule, the “LVESD: Left Ventricular End Systolic Diameter” value [7] was “↑”, the “VD: Ventricular Diastole” value [7] was “↑” and the “VS: Ventricular Systole” value [7] was “↑”. The “GH releasing potency in vivo relative to JI-38 (=1)” value ([5]; 5 min after) was 0.79, the “GH releasing potency in vivo relative to JI-38 (=1)” value ([5]; 15 min after) was 0.92 and the “GH releasing potency in vivo relative to JI-38 (=1)” value ([5]; 30 min after) was 1.00.
